Results from paper PMC10895678 (Journal of Medicinal Chemistry, 2024).
Several values for one entry are separate records, joined by “and”; a condition that tells them apart may be missing. Identical values can stand only once. Like-named read-outs stand apart in the source and are kept apart here.

Assay: Mouse PK, combined (cassette) dosing of BGAz-001–005
Format: in vivo, KM mice
Parameters: AUMC(0-t) / VRT(0-t) / λz: unit not given here
Conditions: for MRT last: read-out: MRT(0-t); for MRT inf: read-out: MRT(0-∞); for Vd/F: read-out: Vz/F
Description: Methods for combined single dosing (BGAz001–005) and dosing of single compounds multiple times (BGAz004 and BGAz005) are described in detail in the Supporting Information (PK Data).
Report on PK Results of Combined Dosing with BGAz-001–005
1 Materials and instrument combined dosing
An MS2 Turnover type oscillator was purchased from IKA Work’s Guangzhou (China), and a 5415R ChromatographicanalyseswereconductedusinganAgilent1290InfinityIIhighperformanceliquidchromatography andAgilentTechnologies6470TripleQuadLC/MS.Propranolol(≥90%inpurity,internalstandard,IS)waspurchased fromtheSigmaChemicalCo.(China).Formicacid(HPLCgrade)andmethanol(HPLCgrade)werepurchasedfrom DIKMACo.(China).Allchemicalsandsolventswereanalyticalgrade.WaterwaspurifiedusingaMillipore(AK,USA) laboratoryultra-purewatersystem(0.2μmfilter).
KMmice,weighing25–35g(BeijingVitalRiverLaboratoryAnimalTechnologyCo.,Ltd.,China)wereutilisedforthe studies.The protocols were approved by the Animal Care and Use Committee, GIBH. Animals were maintained on standard animal chow and waterad libitum, in a climate-controlled room (23±1 °C 30–70% relative humidity, a minimumof tenexchangesof roomairperhouranda12hlight/darkcycle)foroneweekpriortoexperiments.
3 Pharmacokinetic studies
Compounds BGAz-001 ，BGAz-002 ，BGAz-003 ，BGAz-004 and BGAz-005 were dissolved mixed in a solution containing DMSO (2%),ethanol (4%), Cremophor EL (4%) and ddH2O (90%); Pharmacokinetic propertiesof KM (male) were determined following IV, PO and IP administration. Animals were randomly distributed into three experimentalgroups(n=4).ThePOgroupwasgivenmixedsolutionwith5mg/kgbygastricgavage.TheIVgroup was dosed with mixed solution 1mg/kg byinjection into the tail vein. The IP group was dosed with mixed solution 1mg/kg by intraperitoneal injection. After single administration, whole blood samples (100 μL) were obtained from the orbital venousplexus atthe followingtime pointsafter dosing:5, 15,30 minand 1,3, 5,8, 24hour (PO and IP groups) and at the following time points after dosing 2, 10, 30min and 1, 3, 5, 8,24 hour (IV group). Wholeblood samples were collected in heparinised tubes. The plasma fraction was immediately separated by centrifugation. The micewerehumanelyeuthanasiabycarbondioxide24hoursafterexperimentwithoutpain.
4 Plasma sample and brain sample analysis
4.1 Standard curve sample preparation
ThecompoundsweredissolvedinDMSO(2mg/mL)anddilutedwithtoseriesconcentration(methanol:H 2O,1:1,10 μL) and blank plasma (50 μL) were added to 1.5 mL tubes and vortexed for 3 min, then acetonitrile-containing internalstandard(150μL)wasaddedandvortexedforafurther5min,andsubsequentlyspuninacentrifugeat13000 […]
4.2 Plasma and preparation
Plasmasampleswerepreparedusingaproteinprecipitationmethod.Solution(10μL,methanolH 2O,1:1)andplasma samples(50μL)wereaddedto1.5mLtubesandvortexfor3min,thenacetonitrile-containinginternalstandard(150 μL)wasaddedandvortexfor5min,andsubsequentlyspuninacentrifugeat13000× gfor40minat4°C.
Aftercentrifugation,supernatant(100μL)wastransferto96wellplatesandanalysedbyLC-MS/MSusinganAgilent 1290InfinityIIHPLCandanAgilentTechnologies6470TripleQuadLC/MS.

[1] = IP 1 mg/kg, cassette, mean of animals
[2] = IV 1 mg/kg, cassette, mean of animals
[3] = PO 5 mg/kg, cassette, mean of animals
[4] = male, KM, mouse, plasma, IP 1 mg/kg, cassette
[5] = male, KM, mouse, plasma, IP 1 mg/kg, cassette, mean of animals
[6] = male, KM, mouse, plasma, IV 1 mg/kg, cassette
[7] = male, KM, mouse, plasma, IV 1 mg/kg, cassette, mean of animals
[8] = male, KM, mouse, plasma, PO 5 mg/kg, cassette
[9] = male, KM, mouse, plasma, PO 5 mg/kg, cassette, mean of animals

FC(F)(F)Oc1ccc(C2CC(CN3CCCC3)N2Cc2ccccc2OC(F)(F)F)cc1 (stereo not drawn) [BGAz-002]
AUC(0-t) [1]: 390.877 µg | AUC(0-∞) [1]: 629.982 µg | AUMC(0-t) [1]: 3917.162 **μg | AUMC(0-∞) [1]: 17064.651 **μg | CLz/F [1]: 1.79 L/kg | C_last [1]: 8.556 µg | R_AUC(t/∞) [1]: 67.725% | VRT(0-t) [1]: 72.869 ^2 | VRT(0-∞) [1]: 649.236 ^2 | λz [1]: 0.051 1/ | AUC(0-∞) (IP 1 mg/kg, cassette, summary table): 629.982 µg·h | AUC(0-t) [2]: 395.775 µg | AUC(0-∞) [2]: 440.39 µg | AUMC(0-t) [2]: 2604.325 **μg | AUMC(0-∞) [2]: 4336.305 **μg | CLz/F [2]: 2.306 L/kg | C_last [2]: 3.185 µg | R_AUC(t/∞) [2]: 89.5% | VRT(0-t) [2]: 48.868 ^2 | VRT(0-∞) [2]: 164.25 ^2 | Vz/F [2]: 28.224 L/kg | λz [2]: 0.099 1/ | AUC(0-∞) (IV 1 mg/kg, cassette, summary table): 440.39 µg·h | BA (PO 5 mg/kg vs IV 1 mg/kg, cassette): 57.59% | AUC(0-t) [3]: 642.368 µg | AUC(0-∞) [3]: 1268.031 µg | AUMC(0-t) [3]: 6099.109 **μg | AUMC(0-∞) [3]: 48726.538 **μg | CLz/F [3]: 11.484 L/kg | C_last [3]: 17.369 µg | R_AUC(t/∞) [3]: 64% | VRT(0-t) [3]: 48.138 ^2 | VRT(0-∞) [3]: 1193.792 ^2 | λz [3]: 0.025 1/ | AUC(0-∞) (PO 5 mg/kg, cassette, summary table): 1268.03 µg·h | Cmax (male, KM, mouse, plasma, ip, 1 mg/kg, IP 1 mg/kg, cassette, mean of animals, read-out: Cmax): 40 ng/mL | Tmax (male, KM, mouse, plasma, ip, 1 mg/kg, IP 1 mg/kg, cassette, mean of animals, read-out: Tmax): 0.167 h | Cmax (male, KM, mouse, plasma, ip, 1 mg/kg, IP 1 mg/kg, cassette, summary table, read-out: Cmax): 40 ng/mL | half-life (male, KM, mouse, plasma, ip, 1 mg/kg, IP 1 mg/kg, cassette, summary table, read-out: T1/2 (converted)): 16.1 h | Tmax (male, KM, mouse, plasma, ip, 1 mg/kg, IP 1 mg/kg, cassette, summary table, read-out: Tmax): 0.167 h | Cmax (male, KM, mouse, plasma, iv, 1 mg/kg, IV 1 mg/kg, cassette, mean of animals, read-out: Cmax): 189 ng/mL | Tmax (male, KM, mouse, plasma, iv, 1 mg/kg, IV 1 mg/kg, cassette, mean of animals, read-out: Tmax): 0.033 h | Cmax (male, KM, mouse, plasma, iv, 1 mg/kg, IV 1 mg/kg, cassette, summary table, read-out: Cmax): 189 ng/mL | half-life (male, KM, mouse, plasma, iv, 1 mg/kg, IV 1 mg/kg, cassette, summary table, read-out: T1/2 (converted)): 8.35 h | Tmax (male, KM, mouse, plasma, iv, 1 mg/kg, IV 1 mg/kg, cassette, summary table, read-out: Tmax): 0.033 h | AUC(0-inf) (male, KM, mouse, plasma, po, 5 mg/kg, 5 mg/kg PO, cassette dosing, read-out: AUC0-inf): 1270 ng·h/mL | Cmax (male, KM, mouse, plasma, po, 5 mg/kg, 5 mg/kg PO, cassette dosing, read-out: Cmax (Mouse, P.O.)): 53.9 ng/mL | half-life (male, KM, mouse, plasma, po, 5 mg/kg, 5 mg/kg PO, cassette dosing, read-out: T1/2 (Mouse, P.O.) (converted)): 24.9 h | Tmax (male, KM, mouse, plasma, po, 5 mg/kg, 5 mg/kg PO, cassette dosing, read-out: Tmax (Mouse, P.O.)): 1.87 h | Cmax (male, KM, mouse, plasma, po, 5 mg/kg, PO 5 mg/kg, cassette, mean of animals, read-out: Cmax): 53.9 ng/mL | Tmax (male, KM, mouse, plasma, po, 5 mg/kg, PO 5 mg/kg, cassette, mean of animals, read-out: Tmax): 1.88 h | Cmax (male, KM, mouse, plasma, po, 5 mg/kg, PO 5 mg/kg, cassette, summary table, read-out: Cmax): 53.9 ng/mL | half-life (male, KM, mouse, plasma, po, 5 mg/kg, PO 5 mg/kg, cassette, summary table, read-out: T1/2 (converted)): 24.9 h | Tmax (male, KM, mouse, plasma, po, 5 mg/kg, PO 5 mg/kg, cassette, summary table, read-out: Tmax): 1.88 h | concentration at 0.083 h [4]: 37.4 ng/mL and 80 nM | concentration at 0.25 h [4]: 80 nM and 38.8 ng/mL | concentration at 0.5 h [4]: 70 nM and 32.6 ng/mL | concentration at 1 h [4]: 50 nM and 25.8 ng/mL | concentration at 3 h [4]: 50 nM and 24 ng/mL | concentration at 5 h [4]: 40 nM and 17 ng/mL | concentration at 8 h [4]: 30 nM and 15 ng/mL | concentration at 24 h [4]: 30 nM and 12.4 ng/mL | MRT last [5]: 10.1 h | MRT inf [5]: 23.7 h | Vd/F [5]: 36.8 L/kg | concentration at 0.033 h (male, KM, mouse, plasma, IV 1 mg/kg, cassette, 0.033 h): 189 ng/mL and 400 nM | concentration at 0.167 h (male, KM, mouse, plasma, IV 1 mg/kg, cassette, 0.167 h): 210 nM and 98.9 ng/mL | concentration at 0.5 h [6]: 130 nM and 62.5 ng/mL | concentration at 1 h [6]: 100 nM and 45.6 ng/mL | concentration at 3 h [6]: 60 nM and 28.3 ng/mL | concentration at 5 h [6]: 40 nM and 18.3 ng/mL | concentration at 8 h [6]: 30 nM and 12.5 ng/mL | concentration at 24 h [6]: 10 nM and 6.16 ng/mL | C0 [7]: 222 ng/mL | MRT last [7]: 6.46 h | MRT inf [7]: 9.9 h | concentration at 0.083 h [8]: 16.4 ng/mL and 30 nM | concentration at 0.25 h [8]: 50 nM and 25.1 ng/mL | concentration at 0.5 h [8]: 80 nM and 37.7 ng/mL | concentration at 1 h [8]: 100 nM and 49.3 ng/mL | concentration at 3 h [8]: 100 nM and 49.4 ng/mL | concentration at 5 h [8]: 80 nM and 40.1 ng/mL | concentration at 8 h [8]: 80 nM and 36.7 ng/mL | concentration at 24 h [8]: 50 nM and 22.9 ng/mL | MRT last [9]: 7.92 h | MRT inf [9]: 27.5 h | Vd/F [9]: 104 L/kg
